pEC50: −log10 of the molar value.
Biological target: T1, Parathyroid hormone/parathyroid hormone-related peptide receptor (Homo sapiens, UniProt Q03431)
T1 sequence (Q03431 whole entry): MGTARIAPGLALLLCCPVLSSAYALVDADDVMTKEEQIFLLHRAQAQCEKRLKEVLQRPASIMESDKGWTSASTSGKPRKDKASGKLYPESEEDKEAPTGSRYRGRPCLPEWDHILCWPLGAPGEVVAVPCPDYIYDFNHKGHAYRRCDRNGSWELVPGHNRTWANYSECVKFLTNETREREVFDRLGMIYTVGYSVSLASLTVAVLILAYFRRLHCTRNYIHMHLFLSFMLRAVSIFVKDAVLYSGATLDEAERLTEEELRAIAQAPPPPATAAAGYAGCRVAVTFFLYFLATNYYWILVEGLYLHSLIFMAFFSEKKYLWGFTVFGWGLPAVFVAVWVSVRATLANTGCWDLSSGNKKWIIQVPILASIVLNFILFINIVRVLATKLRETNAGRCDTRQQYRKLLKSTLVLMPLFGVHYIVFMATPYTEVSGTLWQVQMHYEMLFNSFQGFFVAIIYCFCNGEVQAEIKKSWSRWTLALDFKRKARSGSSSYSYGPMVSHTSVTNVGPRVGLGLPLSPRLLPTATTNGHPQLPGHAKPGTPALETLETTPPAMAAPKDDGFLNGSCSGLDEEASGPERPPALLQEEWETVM
Assay: Agonist activity at human PTH1 receptor expressed in human GP2.3 cells assessed as induction of cAMP after 12 to 20 mins by luciferase reporter gene assay

pEC50: 9.19
Compound: CC[C@H](C)[C@H](NC(=O)[C@H](CC(C)C)NC(=O)[C@H]1CNC[C@@H]1NC(=O)[C@H](Cc1c[nH]cn1)NC(=O)[C@H](CC(C)C)NC(=O)[C@H](Cc1ccccc1)NC(=O)[C@H]1CNC[C@@H]1NC(=O)[C@H](CCCNC(=N)N)NC(=O)[C@H](CCCNC(=N)N)NC(=O)[C@H](CCCNC(=N)N)NC(=O)[C@H]1CCC[C@@H]1NC(=O)[C@H](CC(=O)O)NC(=O)[C@H](CCC(N)=O)NC(=O)[C@@H](NC(=O)[C@H]1CCC[C@@H]1NC(=O)[C@H](CCCCN)NC(=O)CNC(=O)[C@H](CCCCN)NC(=O)[C@H](CC(=O)O)NC(=O)[C@H](Cc1c[nH]cn1)NC(=O)[C@H](CC(C)C)NC(=O)[C@H](CC(C)C)NC(=O)[C@H](CCC(N)=O)NC(=O)[C@H](Cc1c[nH]cn1)NC(=O)[C@H](CCC(=O)O)NC(=O)[C@H](CO)NC(=O)[C@@H](NC(=O)[C@H](C)N)C(C)C)[C@@H](C)CC)C(=O)N[C@@H](C)C(=O)N[C@H]1CCC[C@@H]1C(=O)N[C@H](C(=O)N[C@@H](Cc1c[nH]cn1)C(=O)N[C@H](C(=O)N[C@H]1CCC[C@@H]1C(N)=O)[C@@H](C)O)[C@@H](C)CC

Source: BindingDB's records for doi:10.1021/acs.jmedchem.7b00876 (University of Wisconsin-Madison, 2017)
